According to the supplement of paper PMC6206229:
Values after ≈ are worked out from the molar mass of the structure shown.

Assays:
[1] = system: Staphylococcus aureus ATCC 700699 (MRSA); experiment: minimum inhibitory concentration; extreme values may be limits of the assay
Method in brief: (§1)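 Following CLSI guidance, methicillin-susceptible and methicillin-resistant Staphylococcus aureus were exposed to compounds from 0 to 100 µM in 96-well plates for 24 h at 37°C, then to 30 µl of 0.015% resazurin for 2–4 h. The minimum inhibitory concentration was read as the lowest concentration with no change from blue to pink. Testing was done at least twice in triplicate with positive controls on each plate.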

[2] = system: Staphylococcus aureus ATCC 29213 (MSSA); experiment: as above
Method in brief: as §1

## COc1ccccc1C(C)NCC(=O)Nc1cc(C(F)(F)F)ccc1Cl (stereo not given)
[1]
  minimum inhibitory concentration: > 50 µM
[2]
  minimum inhibitory concentration: > 50 µM

## COC(=O)c1ccc(F)cc1NS(=O)(=O)c1cccc(-c2cnn(Cc3ccccc3)c2)c1
[1]
  minimum inhibitory concentration: > 50 µM
[2]
  minimum inhibitory concentration: > 50 µM

## Cc1ccc(NC(=O)c2nc[nH]c2C(=O)Nc2nc3ccccc3[nH]2)c(C)c1
[1]
  minimum inhibitory concentration: > 50 µM
[2]
  minimum inhibitory concentration: > 50 µM

## Cc1cc(OCC(=O)Nc2ccc(C(C)C)cc2)n(C)c(=O)c1C#N
[1]
  minimum inhibitory concentration: > 50 µM
[2]
  minimum inhibitory concentration: > 50 µM

## c1coc(CNc2nc(N3CCCCC3)nc3ccccc23)c1
[1]
  minimum inhibitory concentration: > 50 µM
[2]
  minimum inhibitory concentration: > 50 µM

## COc1cc(OC)cc(C(=O)NCC2Cc3cc(Cl)cc(-c4ccncc4)c3O2)c1 (stereo not given)
[1]
  minimum inhibitory concentration: > 50 µM
[2]
  minimum inhibitory concentration: > 50 µM

## CNCCC(Oc1ccc(C(F)(F)F)cc1)c1ccccc1 (stereo not given)
[1]
  minimum inhibitory concentration: > 50 µM
[2]
  minimum inhibitory concentration: > 50 µM

## c1ccc(-c2cc(N3CCCCC3)c3ccccc3n2)nc1
[1]
  minimum inhibitory concentration: > 50 µM
[2]
  minimum inhibitory concentration: > 50 µM

## COc1cc(NC(C)CCCN)c2ncccc2c1 (stereo not given)
[1]
  minimum inhibitory concentration: > 50 µM
[2]
  minimum inhibitory concentration: > 50 µM

## CC(C)(C)c1ccc(N[C@@H]2CCCC[C@H]2NC(=O)c2ccco2)cc1
[1]
  minimum inhibitory concentration: > 50 µM
[2]
  minimum inhibitory concentration: > 50 µM

## N=C(N)c1ccc(-c2cc(-c3ccccc3)on2)cc1
[1]
  minimum inhibitory concentration: > 50 µM
[2]
  minimum inhibitory concentration: > 50 µM

## COC(=O)c1cccc2oc(-c3cccc(OC)c3NC(=O)c3cc(-c4ccccc4)on3)nc12
[1]
  minimum inhibitory concentration: > 50 µM
[2]
  minimum inhibitory concentration: > 50 µM

## CCN(CC)C(=O)N1CCN(C)CC1
[1]
  minimum inhibitory concentration: > 50 µM
[2]
  minimum inhibitory concentration: > 50 µM

## CC(=O)Nc1ccc(-c2noc(CC3CCCN(Cc4cccc(F)c4C)C3)n2)cc1 (stereo not given)
[1]
  minimum inhibitory concentration: > 50 µM
[2]
  minimum inhibitory concentration: > 50 µM

## COc1ccc(C2=NCCN2)cc1-c1cn(-c2cccc(C3=NCCN3)c2)nn1
[1]
  minimum inhibitory concentration: > 50 µM
[2]
  minimum inhibitory concentration: > 50 µM

## CCCNC(=O)N1CCC2(CC1)CC(=O)c1cc(C)ccc1O2
[1]
  minimum inhibitory concentration: > 50 µM
[2]
  minimum inhibitory concentration: > 50 µM

## Cc1nnc(NCc2cccc(Cl)c2)c2ccccc12
[1]
  minimum inhibitory concentration: > 50 µM
[2]
  minimum inhibitory concentration: > 50 µM

## CC(C)(C)[C@H]1CC[C@H](CC2=C(O)C(=O)c3ccccc3C2=O)CC1
[1]
  minimum inhibitory concentration: > 50 µM
[2]
  minimum inhibitory concentration: > 50 µM

## Nc1ccc2ncnc(Nc3ccc(OCc4cccc(F)c4)c(Cl)c3)c2c1
[1]
  minimum inhibitory concentration: > 50 µM
[2]
  minimum inhibitory concentration: > 50 µM

## c1ccc(Oc2ccc(-c3cc(C4CCOCC4)[nH]n3)cc2)cc1
[1]
  minimum inhibitory concentration: > 50 µM
[2]
  minimum inhibitory concentration: > 50 µM

## CCc1nn(C)c(C(=O)NCc2ccc(Oc3ccc(C)cc3)cc2)c1Cl
[1]
  minimum inhibitory concentration: > 50 µM
[2]
  minimum inhibitory concentration: > 50 µM

## COc1ccc(S(=O)(=O)Nc2ccc(CN3CCN(C(=O)c4cccc(C#N)c4)CC3)cc2)cc1
[1]
  minimum inhibitory concentration: > 50 µM
[2]
  minimum inhibitory concentration: > 50 µM

## CC(C)(CN)c1nc(-c2ccc(Cl)c(O)c2)c(-c2ccnc(N)n2)[nH]1
[1]
  minimum inhibitory concentration: > 50 µM
[2]
  minimum inhibitory concentration: > 50 µM

## CC(C)/N=c1\cc2n(-c3ccc(Cl)cc3)c3ccccc3nc-2cc1Nc1ccc(Cl)cc1
[1]
  minimum inhibitory concentration: > 50 µM
[2]
  minimum inhibitory concentration: > 50 µM

## COc1ccc(-c2nn(C(C)C)c3ncnc(N)c23)cc1OC
[1]
  minimum inhibitory concentration: > 50 µM
[2]
  minimum inhibitory concentration: > 50 µM

## CC(C)(C)n1nc(Cc2ccc(F)c(Cl)c2)c2c(N)ncnc21
[1]
  minimum inhibitory concentration: > 50 µM
[2]
  minimum inhibitory concentration: > 50 µM

## COc1ccc(-c2cc(NC(=O)c3ccc(F)cc3Cl)ccc2OC)cc1
[1]
  minimum inhibitory concentration: > 50 µM
[2]
  minimum inhibitory concentration: > 50 µM

## CCOC(=O)c1noc(N)c1-c1ccccc1
[1]
  minimum inhibitory concentration: 50 µM (≈ 11.6 µg/mL)
[2]
  minimum inhibitory concentration: 50 µM (≈ 11.6 µg/mL)

## CNC(=O)c1cc(S(=O)(=O)N2CCN(c3ccccn3)CC2)cs1
[1]
  minimum inhibitory concentration: > 50 µM
[2]
  minimum inhibitory concentration: > 50 µM

## NS(=O)(=O)c1cccc(-c2ccc3ncc(N4CCOCC4)nc3c2)c1
[1]
  minimum inhibitory concentration: > 50 µM
[2]
  minimum inhibitory concentration: > 50 µM

## O=C(C(Cc1c[nH]c2ccccc12)NS(=O)(=O)c1ccc(Cl)cc1)N1CCCCC1 (stereo not given)
[1]
  minimum inhibitory concentration: > 50 µM
[2]
  minimum inhibitory concentration: > 50 µM

## CC(C)NCC(=O)Nc1cccc(C(=O)Nc2cccc(C(F)(F)F)c2)c1
[1]
  minimum inhibitory concentration: > 50 µM
[2]
  minimum inhibitory concentration: > 50 µM

## c1ccc(Oc2ccc(-c3cc(N4CCOCC4)[nH]n3)cc2)cc1
[1]
  minimum inhibitory concentration: > 50 µM
[2]
  minimum inhibitory concentration: > 50 µM

## CCc1ccc(S(=O)(=O)Nc2cc(CN3CCN(CCC(C)C)CC3)ccc2C)cc1
[1]
  minimum inhibitory concentration: > 50 µM
[2]
  minimum inhibitory concentration: > 50 µM

## COc1cccc(OCC(=O)c2ccc(Br)cc2)c1
[1]
  minimum inhibitory concentration: > 50 µM
[2]
  minimum inhibitory concentration: > 50 µM

## CC1(C)OB(O)c2ccc(C3=NOC(c4cc(Cl)c(F)c(Cl)c4)(C(F)(F)F)C3)cc21 (stereo not given)
[1]
  minimum inhibitory concentration: 6.25 µM (≈ 2.89 µg/mL)
[2]
  minimum inhibitory concentration: 6.25 µM (≈ 2.89 µg/mL)

## Cc1noc(C)c1COc1cccc(C(=O)N=c2[nH]cccc2C)c1
[1]
  minimum inhibitory concentration: > 50 µM
[2]
  minimum inhibitory concentration: > 50 µM

## CCn1ncc2c(NC3CCOCC3)c(CNC(=O)c3ccnn3C)c(C)nc21
[1]
  minimum inhibitory concentration: > 50 µM
[2]
  minimum inhibitory concentration: > 50 µM

## CCOC(=O)NC(=O)c1ccsc1NC(=O)c1nc2ccccc2s1
[1]
  minimum inhibitory concentration: > 50 µM
[2]
  minimum inhibitory concentration: > 50 µM

## CN1CCN(S(=O)(=O)c2ccc(-c3ccc4c(Nc5ccc6nn[nH]c6c5)ccnc4c3)cc2)CC1
[1]
  minimum inhibitory concentration: > 50 µM
[2]
  minimum inhibitory concentration: > 50 µM

## COc1ccc(Cl)cc1NC(=O)CN(C)C(=O)c1cnn(-c2ccccc2)n1
[1]
  minimum inhibitory concentration: > 50 µM
[2]
  minimum inhibitory concentration: > 50 µM

## O=C1Nc2ccc(Br)cc2C12NCCc1c2[nH]c2ccccc12 (stereo not given)
[1]
  minimum inhibitory concentration: > 50 µM
[2]
  minimum inhibitory concentration: > 50 µM

## CCCc1ccc(S(=O)(=O)Nc2ccc(CN3CCN(CC4CC4)CC3)cc2)cc1
[1]
  minimum inhibitory concentration: > 50 µM
[2]
  minimum inhibitory concentration: > 50 µM

## CO[C@H]1/C=C\O[C@@]2(C)Oc3c(C)c(O)c4c(O)c(/c(=C/NN5CCN(C)CC5)c(O)c4c3C2=O)=N\C(=O)/C(C)=C\C=C/[C@H](C)[C@H](O)[C@@H](C)[C@@H](O)[C@@H](C)[C@H](OC(C)=O)[C@@H]1C
[1]
  minimum inhibitory concentration: 50 µM (≈ 41.1 µg/mL)
[2]
  minimum inhibitory concentration: 0.09 µM (≈ 0.0741 µg/mL)

## CN(C(=O)c1cc2c(-c3cncnc3)cccc2[nH]1)c1ccccc1
[1]
  minimum inhibitory concentration: > 50 µM
[2]
  minimum inhibitory concentration: > 50 µM

## COc1cncc(-c2cncc(N3CCN(c4ccncc4)CC3)n2)c1
[1]
  minimum inhibitory concentration: > 50 µM
[2]
  minimum inhibitory concentration: > 50 µM

## FC(F)(F)c1nnc2ccc(Cl)nn12
[1]
  minimum inhibitory concentration: > 50 µM
[2]
  minimum inhibitory concentration: > 50 µM

## Cc1ccc2cc(C3NC(=O)c4ccccc4N3)c(Cl)nc2c1 (stereo not given)
[1]
  minimum inhibitory concentration: > 50 µM
[2]
  minimum inhibitory concentration: > 50 µM

## Cc1cnc(N2CCN[C@@H](Cc3ccccc3)C2)nc1Oc1ccc(-n2ccnc2)cc1
[1]
  minimum inhibitory concentration: > 50 µM
[2]
  minimum inhibitory concentration: > 50 µM

## FC(F)(F)c1cnc(Sc2nnc(-c3ccncc3)o2)c(Cl)c1
[1]
  minimum inhibitory concentration: > 50 µM
[2]
  minimum inhibitory concentration: > 50 µM

## O=C(Nc1ccc2c(c1)B(O)OC2)c1ccccc1C(F)(F)F
[1]
  minimum inhibitory concentration: > 50 µM
[2]
  minimum inhibitory concentration: > 50 µM

## CCC(=O)Nc1ccccc1C(=O)Nc1ccccn1
[1]
  minimum inhibitory concentration: > 50 µM
[2]
  minimum inhibitory concentration: > 50 µM

## COc1cc(Br)cc2cc(C(=O)Nc3cccc(C(F)(F)F)c3)c(=O)oc12
[1]
  minimum inhibitory concentration: > 50 µM
[2]
  minimum inhibitory concentration: > 50 µM

## CCOC(=O)c1cc(-c2csc(Nc3c(C)cc(C)cc3C)n2)on1
[1]
  minimum inhibitory concentration: > 50 µM
[2]
  minimum inhibitory concentration: > 50 µM

## Cc1nc(-c2cccc(NCc3ccccc3)c2)[nH]c1C
[1]
  minimum inhibitory concentration: 50 µM (≈ 13.9 µg/mL)
[2]
  minimum inhibitory concentration: 50 µM (≈ 13.9 µg/mL)

## O=C(NC1CC1)c1ccc(N2CCOc3ccc(Cl)cc32)s1
[1]
  minimum inhibitory concentration: > 50 µM
[2]
  minimum inhibitory concentration: > 50 µM

## c1csc(-c2cnc3sc(NCC4CCOCC4)nn23)c1
[1]
  minimum inhibitory concentration: > 50 µM
[2]
  minimum inhibitory concentration: > 50 µM

## CCC(Sc1nc2ccccc2o1)C(=O)Nc1nnc(C)s1 (stereo not given)
[1]
  minimum inhibitory concentration: 50 µM (≈ 16.7 µg/mL)
[2]
  minimum inhibitory concentration: 50 µM (≈ 16.7 µg/mL)

## CC1=Nc2ccc(Cl)cc2C(O)(c2ccc(C)cc2)N1CCN1CCCCC1 (stereo not given)
[1]
  minimum inhibitory concentration: > 50 µM
[2]
  minimum inhibitory concentration: > 50 µM

## CC1=NN(c2nc3ccccc3s2)C(=O)C1Cc1cccc2ccccc12 (stereo not given)
[1]
  minimum inhibitory concentration: > 50 µM
[2]
  minimum inhibitory concentration: > 50 µM

## O=C(NCCN1CCCC1)c1cc(NCCCCN2CCC(F)(F)CC2)nc2ccc(Cl)cc12
[1]
  minimum inhibitory concentration: > 50 µM
[2]
  minimum inhibitory concentration: > 50 µM

## O=C(N[C@H](Cc1ccccc1)C(=O)Nc1ccccc1N1CCOCC1)c1cccs1
[1]
  minimum inhibitory concentration: > 50 µM
[2]
  minimum inhibitory concentration: > 50 µM

## COc1ccc(Nc2ccccc2NC(=O)c2ccc(O)nc2)cc1
[1]
  minimum inhibitory concentration: > 50 µM
[2]
  minimum inhibitory concentration: > 50 µM

## CCS(=O)(=O)N(Cc1ccco1)Cc1cc2ccc(C)cc2nc1O
[1]
  minimum inhibitory concentration: > 50 µM
[2]
  minimum inhibitory concentration: > 50 µM

## CN1CCN(c2nccc3[nH]c(-c4cccc(F)c4)cc23)CC1
[1]
  minimum inhibitory concentration: > 50 µM
[2]
  minimum inhibitory concentration: > 50 µM

## Cc1noc(C)c1C(=O)N1CCCC(c2[nH]c3c(C)cccc3c2-c2ccncc2)C1 (stereo not given)
[1]
  minimum inhibitory concentration: > 50 µM
[2]
  minimum inhibitory concentration: > 50 µM

## COc1cccc(-c2nc3c(N4CCCC4)cccc3n2CC2CCCN2)n1 (stereo not given)
[1]
  minimum inhibitory concentration: 50 µM (≈ 18.9 µg/mL)
[2]
  minimum inhibitory concentration: 25 µM (≈ 9.44 µg/mL)

## CN1CCCN(C(c2ccccc2)c2ccc(Cl)cc2)CC1 (stereo not given)
[1]
  minimum inhibitory concentration: > 50 µM
[2]
  minimum inhibitory concentration: > 50 µM

## COc1ccc(-c2onc(C(F)(F)F)c2-c2ccc(Cl)cc2)c(O)c1
[1]
  minimum inhibitory concentration: > 50 µM
[2]
  minimum inhibitory concentration: > 50 µM

## Cc1cccc(-c2nc(Nc3ccncn3)c3sccc3n2)n1
[1]
  minimum inhibitory concentration: > 50 µM
[2]
  minimum inhibitory concentration: > 50 µM
